Experimental data published in BigSolDB 2.1.

OCC1(O)OC[C@@H](O)[C@@H](O)[C@H]1O (some centres not stated)
solubility (mole fraction)
Conditions | 283.15 K | 288.15 K | 293.15 K | 298.15 K | 303.15 K | 308.15 K | 313.15 K | 318.15 K | 323.15 K
in 2-butanone | 0.000516 | 0.000587 | 0.000946 | 0.00144 | 0.00198 | 0.00264 | 0.0033 | 0.00464 | 0.00552
in acetone | 0.000606 | 0.000752 | 0.00104 | 0.00158 | 0.00219 | 0.00299 | 0.00376 | 0.0049 | –
in acetonitrile | 0.000226 | 0.000283 | 0.000367 | 0.00047 | 0.000627 | 0.000861 | 0.00109 | 0.00139 | 0.00176
in ethanol | 0.00369 | 0.00446 | 0.00588 | 0.00746 | 0.00899 | 0.0116 | 0.0147 | 0.018 | 0.0222
in ethyl acetate | 0.00077 | 0.000993 | 0.00128 | 0.00173 | 0.00217 | 0.00257 | 0.00327 | 0.00379 | 0.00449
in ethyl formate | 0.000243 | 0.000356 | 0.000493 | 0.000697 | 0.00109 | 0.00151 | 0.00193 | 0.00275 | 0.00346
in isopropanol | 0.00147 | 0.00193 | 0.00254 | 0.00368 | 0.00507 | 0.00673 | 0.00893 | 0.0112 | 0.0143
in methanol | 0.0162 | 0.0178 | 0.0212 | 0.0273 | 0.0356 | – | – | – | –
